Reference: ChEMBL document CHEMBL1146038, “Hassallidin B--second antifungal member of the Hassallidin family” (2006)
Converted amounts (≈) assume the structure as drawn. Positions of bridges follow the written chain, without caps; N, C: chain ends. Non-standard residues stand in square brackets, D forms with d. Residues, ends and D or L forms follow the SMILES beside them. *: point of attachment. X3 = CCCCCCCCCCCC(O[C@@H]1O[C@@H](C)[C@H](O)[C@@H](O)[C@H]1O)C(O)C(=O)*; X2 = OC[C@H]1O[C@@H](*)[C@@H](O)[C@@H](O)[C@@H]1O; NMeT = CN[C@H](C(=O)O)[C@@H](C)O; X1 = CCCCCCCCCCCC(O)C(O)C(=O)*; Dhb = C/C=C(\N)C(=O)O

Experiments:
Format in all cases: functional
[1] = system: Candida parapsilosis; experiment: Antifungal activity against Candida parapsilosis ATCC 22019; conditions: Lodderomyces parapsilosis
[2] = system: Pichia kudriavzevii; experiment: Antifungal activity against Candida krusei ATCC 6258
[3] = system: Candida albicans; experiment: Antifungal activity against Candida albicans SC 5314
[4] = system: Candida albicans; experiment: Antifungal activity against Candida albicans ATCC 44374
[5] = system: Candida albicans; experiment: Antifungal activity against Candida albicans ATCC 90028
[6] = system: Candida albicans; experiment: Antifungal activity against Candida albicans ATCC 24433
[7] = system: Nakaseomyces glabratus; experiment: Antifungal activity against Candida glabrata DSM 11950
[8] = system: Nakaseomyces glabratus; experiment: Antifungal activity against Candida glabrata ATCC 90030
[9] = system: Candida parapsilosis; experiment: Antifungal activity against Candida parapsilosis ATCC 90018; conditions: Lodderomyces parapsilosis
[10] = system: Candida tropicalis; experiment: Antifungal activity against Candida tropicalis ATCC 90874
[11] = system: Candida tropicalis; experiment: Antifungal activity against Candida tropicalis ATCC 750
[12] = system: Pichia kudriavzevii; experiment: Antifungal activity against Candida krusei ATCC 90878
[13] = system: Cryptococcus neoformans; experiment: Antifungal activity against Cryptococcus neoformans ATCC 34543
[14] = system: Cryptococcus neoformans; experiment: Antifungal activity against Cryptococcus neoformans DSM 6973
[15] = system: Cryptococcus neoformans; experiment: Antifungal activity against Cryptococcus neoformans CBS 6955
[16] = system: Cryptococcus neoformans; experiment: Antifungal activity against Cryptococcus neoformans ATCC 90112

## C/C=C1\NC(=O)[C@H](Cc2ccc(O)cc2)NC(=O)[C@H]([C@@H](C)O)NC(=O)[C@@H](NC(=O)[C@@H](NC(=O)C(O)C(CCCCCCCCCCC)O[C@@H]2O[C@@H](C)[C@H](O)[C@@H](O)[C@H]2O)[C@@H](C)O)[C@@H](C)OC(=O)[C@H](CCC(N)=O)NC(=O)[C@H]([C@@H](C)O[C@@H]2O[C@H](CO)[C@@H](O)[C@H](O)[C@@H]2O)N(C)C(=O)CNC(=O)[C@H](CCC(N)=O)NC1=O (some centres undefined) (X3-TTTY[Dhb]QG[NMeT](X2)Q; ester 2-C)
[1]
  MFC: 16 µg/mL (≈ 10.5 µM)
  MIC: 8 µg/mL (≈ 5.23 µM)
[2]
  MFC: 16 µg/mL (≈ 10.5 µM)
  MIC: 8 µg/mL (≈ 5.23 µM)
[3]
  MFC: 8 µg/mL (≈ 5.23 µM)
  MIC: 8 µg/mL (≈ 5.23 µM)
[4]
  MFC: 16 µg/mL (≈ 10.5 µM)
  MIC: 8 µg/mL (≈ 5.23 µM)
[5]
  MFC: 8 µg/mL (≈ 5.23 µM)
  MIC: 8 µg/mL (≈ 5.23 µM)
[6]
  MFC: 16 µg/mL (≈ 10.5 µM)
  MIC: 16 µg/mL (≈ 10.5 µM)
[7]
  MFC: 16 µg/mL (≈ 10.5 µM)
  MIC: 16 µg/mL (≈ 10.5 µM)
[8]
  MFC: 16 µg/mL (≈ 10.5 µM)
  MIC: 16 µg/mL (≈ 10.5 µM)
[9]
  MFC: > 16 µg/mL
  MIC: 16 µg/mL (≈ 10.5 µM)
[10]
  MFC: 16 µg/mL (≈ 10.5 µM)
  MIC: 8 µg/mL (≈ 5.23 µM)
[11]
  MFC: 16 µg/mL (≈ 10.5 µM)
  MIC: 16 µg/mL (≈ 10.5 µM)
[12]
  MFC: 16 µg/mL (≈ 10.5 µM)
  MIC: 16 µg/mL (≈ 10.5 µM)
[13]
  MFC: 8 µg/mL (≈ 5.23 µM)
  MIC: 8 µg/mL (≈ 5.23 µM)
[14]
  MFC: 8 µg/mL (≈ 5.23 µM)
  MIC: 8 µg/mL (≈ 5.23 µM)
[15]
  MFC: 8 µg/mL (≈ 5.23 µM)
  MIC: 8 µg/mL (≈ 5.23 µM)
[16]
  MFC: 8 µg/mL (≈ 5.23 µM)
  MIC: 8 µg/mL (≈ 5.23 µM)

## C/C=C1\NC(=O)[C@H](Cc2ccc(O)cc2)NC(=O)[C@H]([C@@H](C)O)NC(=O)[C@@H](NC(=O)[C@@H](NC(=O)C(O)C(O)CCCCCCCCCCC)[C@@H](C)O)[C@@H](C)OC(=O)[C@H](CCC(N)=O)NC(=O)[C@H]([C@@H](C)O[C@@H]2O[C@H](CO)[C@@H](O)[C@H](O)[C@@H]2O)N(C)C(=O)CNC(=O)[C@H](CCC(N)=O)NC1=O (some centres undefined) [HASSALLIDIN A] (X1-TTTY[Dhb]QG[NMeT](X2)Q; ester 2-C)
[1]
  MFC: 8 µg/mL (≈ 5.79 µM)
  MIC: 8 µg/mL (≈ 5.79 µM)
[2]
  MFC: 8 µg/mL (≈ 5.79 µM)
  MIC: 8 µg/mL (≈ 5.79 µM)
[3]
  MFC: 8 µg/mL (≈ 5.79 µM)
  MIC: 4 µg/mL (≈ 2.89 µM)
[4]
  MFC: 4 µg/mL (≈ 2.89 µM)
  MIC: 4 µg/mL (≈ 2.89 µM)
[5]
  MFC: 4 µg/mL (≈ 2.89 µM)
  MIC: 4 µg/mL (≈ 2.89 µM)
[6]
  MFC: 4 µg/mL (≈ 2.89 µM)
  MIC: 4 µg/mL (≈ 2.89 µM)
[7]
  MFC: 8 µg/mL (≈ 5.79 µM)
  MIC: 8 µg/mL (≈ 5.79 µM)
[8]
  MFC: 8 µg/mL (≈ 5.79 µM)
  MIC: 8 µg/mL (≈ 5.79 µM)
[9]
  MFC: 16 µg/mL (≈ 11.6 µM)
  MIC: 8 µg/mL (≈ 5.79 µM)
[10]
  MFC: 8 µg/mL (≈ 5.79 µM)
  MIC: 8 µg/mL (≈ 5.79 µM)
[11]
  MFC: 4 µg/mL (≈ 2.89 µM)
  MIC: 4 µg/mL (≈ 2.89 µM)
[12]
  MFC: 8 µg/mL (≈ 5.79 µM)
  MIC: 8 µg/mL (≈ 5.79 µM)
[13]
  MFC: 8 µg/mL (≈ 5.79 µM)
  MIC: 4 µg/mL (≈ 2.89 µM)
[14]
  MFC: 8 µg/mL (≈ 5.79 µM)
  MIC: 4 µg/mL (≈ 2.89 µM)
[15]
  MFC: 8 µg/mL (≈ 5.79 µM)
  MIC: 4 µg/mL (≈ 2.89 µM)
[16]
  MFC: 8 µg/mL (≈ 5.79 µM)
  MIC: 4 µg/mL (≈ 2.89 µM)
